What was measured:
[1] = molecular target: T1, Cytochrome P450 3A4 (Homo sapiens, UniProt P08684); assay: Inhibition of CYP3A4 (unknown origin) using testosterone as substrate; format: ADME
[2] = molecular target: Cytochrome P450 2C19 (Homo sapiens, UniProt P33261); assay: Inhibition of CYP2C19 (unknown origin); format: ADME
[3] = molecular target: T2, Cytochrome P450 2B6 (Homo sapiens, UniProt P20813); assay: Inhibition of CYP2B6 (unknown origin); format: ADME
T2 sequence (P20813 whole entry): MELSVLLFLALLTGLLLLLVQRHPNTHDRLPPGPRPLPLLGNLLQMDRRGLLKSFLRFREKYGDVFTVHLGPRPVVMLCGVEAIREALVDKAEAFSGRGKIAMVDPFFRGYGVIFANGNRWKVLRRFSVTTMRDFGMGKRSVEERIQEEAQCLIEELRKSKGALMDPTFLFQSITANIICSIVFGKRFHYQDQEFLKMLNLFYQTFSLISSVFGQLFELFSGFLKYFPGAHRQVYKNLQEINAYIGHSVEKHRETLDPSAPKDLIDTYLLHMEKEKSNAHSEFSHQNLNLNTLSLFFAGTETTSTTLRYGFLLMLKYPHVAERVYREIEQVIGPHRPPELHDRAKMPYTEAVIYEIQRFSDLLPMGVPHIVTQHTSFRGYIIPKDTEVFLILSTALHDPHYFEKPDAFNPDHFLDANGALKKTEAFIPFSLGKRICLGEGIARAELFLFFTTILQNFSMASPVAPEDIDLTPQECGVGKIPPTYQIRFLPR

[4] = Protein binding in rat plasma; format: ADME, cell-free; settings: read-out: PPB (converted)
[5] = Intrinsic clearance in mouse liver microsomes; format: ADME, Microsome; settings: read-out: CLH
[6] = Stability of compound assessed as remaining parent compound by measuring retention time; format: physicochemical
[7] = Intrinsic clearance in human liver microsomes; format: ADME, Microsome; settings: read-out: CLH
[8] = Oral bioavailability in Sprague-Dawley rat at 3 mg/kg measured for 0.25 to 24 hrs by LC-MS/MS analysis; format: ADME, organism-based; settings: in vivo, time 0.25-24 hrs
[9] = Stability of compound assessed as (1S,3s)-3-(6-carbamoyl-1-((R)-2-(2-methoxyphenyl)-2-((tetrahydro-2H-pyran-4-yl)oxy)ethyl)-5-methyl-2,4-dioxo-1,4-dihydrothieno[2,3-d]pyrimidin-3(2H)-y l)-1-methylcyclobutane-1-carboxylic acid metabolite formation by measuring retention time; format: ADME
[10] = molecular target: Acetyl-CoA carboxylase 1 (Homo sapiens, UniProt Q13085)
Description: Inhibition of recombinant human ACC1 using acetyl-Co A as substrate incubated for 60 mins in presence of ATP by ADP-Glo assay

[11] = Inhibition of fatty acid synthesis in human HepG2 cells preincubated for 1.5 hrs followed by [14C] acetate addition measured after 1.5 hrs by liquid scintillation counter analysis; format: functional, cell-based
[12] = Half life in Sprague-Dawley rat at 3 mg/kg, po measured for 0.25 to 24 hrs by LC-MS/MS analysis; format: ADME, organism-based; settings: in vivo, time 0.25-24 hrs
[13] = Intrinsic clearance in monkey liver microsomes; format: ADME, Macaca mulatta, Microsome; settings: rhesus monkey, read-out: CLH
[14] = Stability of compound assessed as compound isomerization by measuring retention time; format: physicochemical
[15] = in vivo; settings: Sprague-Dawley, rat, liver, po, 3 mg/kg
Description: Drug concentration in liver of Sprague-Dawley rat at 3 mg/kg, po measured after 4 hrs by LC-MS/MS analysis

[16] = molecular target: T1, Cytochrome P450 3A4; assay: Inhibition of CYP3A4 (unknown origin) using midazolam as substrate; format: ADME
[17] = Mutagenicity in Salmonella typhimurium by mini-Ames test; format: toxicity; settings: salmonella enterica subsp. enterica serovar typhimurium
[18] = AUC (0 to t) in Sprague-Dawley rat at 3 mg/kg, po measured for 0.25 to 24 hrs by LC-MS/MS analysis; format: ADME, organism-based; settings: in vivo, time 0.25-24 hrs

T1 sequence (P08684 whole entry): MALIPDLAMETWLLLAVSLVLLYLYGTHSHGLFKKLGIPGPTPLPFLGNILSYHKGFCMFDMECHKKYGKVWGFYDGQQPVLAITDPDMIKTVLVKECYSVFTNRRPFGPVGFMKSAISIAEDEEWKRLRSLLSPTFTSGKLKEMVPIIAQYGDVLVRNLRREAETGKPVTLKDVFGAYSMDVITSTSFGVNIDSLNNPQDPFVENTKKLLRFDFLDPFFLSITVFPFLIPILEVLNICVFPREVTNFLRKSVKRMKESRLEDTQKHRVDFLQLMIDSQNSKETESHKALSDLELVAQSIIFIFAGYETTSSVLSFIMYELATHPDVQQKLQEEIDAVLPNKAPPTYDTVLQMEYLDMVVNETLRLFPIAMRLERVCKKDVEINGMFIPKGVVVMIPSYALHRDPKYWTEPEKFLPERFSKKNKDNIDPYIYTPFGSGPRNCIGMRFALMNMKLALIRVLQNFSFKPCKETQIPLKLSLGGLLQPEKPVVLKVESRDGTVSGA
Sequence of Cytochrome P450 2C19 (P33261 whole entry): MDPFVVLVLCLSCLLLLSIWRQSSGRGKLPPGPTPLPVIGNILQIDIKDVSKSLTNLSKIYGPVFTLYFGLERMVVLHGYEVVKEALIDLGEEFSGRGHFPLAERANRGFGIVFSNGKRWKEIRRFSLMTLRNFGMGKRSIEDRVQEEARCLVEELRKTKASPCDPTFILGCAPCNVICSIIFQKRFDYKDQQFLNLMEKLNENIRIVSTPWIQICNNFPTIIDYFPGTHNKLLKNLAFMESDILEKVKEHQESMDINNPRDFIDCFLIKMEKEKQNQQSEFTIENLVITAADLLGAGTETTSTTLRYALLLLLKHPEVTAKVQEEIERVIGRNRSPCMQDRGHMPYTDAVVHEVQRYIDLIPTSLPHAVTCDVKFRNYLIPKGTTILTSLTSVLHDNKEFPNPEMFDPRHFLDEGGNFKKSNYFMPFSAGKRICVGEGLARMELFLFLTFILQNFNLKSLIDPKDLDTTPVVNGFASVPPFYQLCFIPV

Question: Which IC50 [1] does the source give for `COc1ccccc1[C@H](Cn1c(=O)n([C@H]2C[C@@](C)(C(=O)O)C2)c(=O)c2c(C)c(-c3ncco3)sc21)OC1CCOCC1` here?
Answer: > 30 µM

Question: And the IC50 [2]?
Answer: > 30 µM

Question: And the IC50 [3]?
Answer: > 30 µM

Question: What about the fraction unbound [4] of the same compound?
Answer: 0.029

Question: And the CLint scaled [5]?
Answer: 44.4 mL/min/kg

Question: What about the Retention_time [6] of the same compound?
Answer: 10.61 min

Question: And the CLint scaled [7]?
Answer: < 8.6 mL/min/kg

Question: And the bioavailability [8]?
Answer: 22%

Question: What about the Retention_time [9] of the same compound?
Answer: 7.64 min

Question: What about the IC50 [10] of the same compound?
Answer: 0.00073 µM

Question: And the IC50 [11]?
Answer: 0.0069 µM

Question: And the half-life [12]?
Answer: 3.3 h

Question: What about the CLint scaled [13] of the same compound?
Answer: < 13 mL/min/kg

Question: And the Retention_time [14]?
Answer: 11.01 min

Question: And the concentration at 4 h [15]?
Answer: 4830 ng/mL

Question: What about the IC50 [16] of the same compound?
Answer: > 30 µM

Question: What about the Activity [17] of the same compound?
Answer: Non-toxic

Question: And the AUC(0-t) [18]?
Answer: 174 ng·h/mL

From ChEMBL document CHEMBL6134873, “Identification of Novel Cyclobutane-Based Derivatives as Potent Acetyl-CoA Carboxylase Allosteric Inhibitors for Nonalcoholic Steatohepatitis Drug Discovery” (J Med Chem, 2025)
